Assay results from paper PMC11360483, “Anti-Inflammatory, Antibacterial, Anti-Biofilm, and Anti-Quorum Sensing Activities of the Diterpenes Isolated from Clinopodium bolivianum” (Pharmaceutics, 2024).
Values after ≈ are worked out from the molar mass of the structure shown. Values joined by “and” are separate entries in the source; they are usually repeats but may differ in a detail not shown here. Identical values can stand only once. Counter-ions that a name gives are not always drawn. Like-named read-outs stand apart in the source and are kept apart here. *1 amine or outer side, *2 acyl side, *3 side chain or, on linkers, in order; H or OH if unused. Where a SMILES comes first, the peptide text is derived from it. Bridges are numbered along the chain shown (N, C = ends). Roman numbers before positions name the chains, in order. [ ]: non-standard residue; d: D form. Actinocin(9to1) = Cc1c2oc3c(C)ccc(C(=O)[*:1])c3nc-2c(C(=O)[*:2])c(N)c1=O; NMeV = CN[C@H](C(=O)O)C(C)C; Sar = CNCC(=O)O

Tests used:
NF-κB [1] = experiment: NF-κB inhibition assay (LPS-stimulated) in THP-1; type: cell-based; details: Homo sapiens, read-out: NF-κB Inhibition at 24 h IC50 ± SEM
NF-κB [2] = experiment: NF-κB inhibition assay (LPS-stimulated) in MRC-5; type: cell-based; details: Homo sapiens, read-out: NF-κB Inhibition at 24 h IC50 ± SEM
L. pneumophila [3] = experiment: microbe, parasite or virus in culture; type: cell-based; details: Legionella pneumophila, 24 h
C. violaceum [4] = type: cell-based, Chromobacterium violaceum; details: for % of Violacein Inhibition: at the Anti-QS concentration (compound 3 at 0.94 µM, compound 4 at 1.16 µM)
L. pneumophila [5] = type: cell-based, Legionella pneumophila
H. influenzae [6] = experiment: microbe, parasite or virus in culture; type: cell-based; details: Haemophilus influenzae, 24 h
S. aureus [7] = type: cell-based, Staphylococcus aureus
Huh7 cells = system: Huh7 cells; set-up: method as in PMID 37423053; details: cited from earlier work
C. violaceum [8] = experiment: Anti-biofilm activity on C. violaceum; type: cell-based, Chromobacterium violaceum
S. pneumoniae [9] = experiment: microbe, parasite or virus in culture; type: cell-based; details: Streptococcus pneumoniae, 24 h
S. aureus [10] = experiment: microbe, parasite or virus in culture; type: cell-based; details: Staphylococcus aureus, 24 h
[11] = system: H. influenzae, L. pneumophila, S. pneumoniae, and S. aureus; experiment: organism not typed; type: cell-based
[12] = WST-1 cytotoxicity assay, cell line not singled out; details: human
NF-κB [13] = experiment: NF-κB inhibition assay (LPS-stimulated) in HBEC3-KT; type: cell-based; details: Homo sapiens, 24 h, read-out: NF-κB Inhibition at 24 h IC50 ± SEM
S. pneumoniae [14] = type: cell-based, Streptococcus pneumoniae
Hep3B cells = system: Hep3B cells; set-up: method as in PMID 37423053; details: cited from earlier work
[15] = WST-1 cytotoxicity (viability) assay, control cell line; details: human
H. influenzae [16] = type: cell-based, Haemophilus influenzae
[17] = WST-1 cytotoxicity (viability) assay; details: human, WST-1, 24 h, HBEC3-KT
[18] = WST-1 cytotoxicity (viability) assay; details: human, WST-1, 24 h, MRC-5
[19] = system: H. influenzae, L. pneumophila, S. pneumoniae, and S. aureus; type: cell-based; details: strain not stated
RAW 264.7 cells = system: RAW 264.7 cells; set-up: method as in doi:10.1016/j.phytol.2020.01.005; details: read-out: IC50, inhibition of nitric oxide (NO) production; cited from earlier work
[20] = system: H. influenzae, L. pneumophila, S. pneumoniae, and S. aureus; type: cell-based; details: strain not stated; remark: listed apart in the source
[21] = MRC5, MRC-5, LPS-stimulated, 24 h
[22] = range over S. pneumoniae and S. aureus Gram-positive bacteria
[23] = value given in the method for the compounds
[24] = value given in the method for the extracts

Row | Compound | IC50 (NF-κB [1]; THP-1, LPS-stimulated, 24 h) | IC50 (NF-κB [2]; [21]) | MIC (L. pneumophila [3]) | Anti-QS (C. violaceum [4]) | % of Violacein Inhibition (C. violaceum [4]) | Quorum Sensing Inhibition at 24 h Anti-QS ± SEM (L. pneumophila [5]) | MIC (H. influenzae [6]) | Quorum Sensing Inhibition at 24 h Anti-QS ± SEM (S. aureus [7]) | BIC (C. violaceum [8]) | MIC (S. pneumoniae [9]) | MIC (S. aureus [10]) | IC50 (NF-κB [13]; LPS-stimulated) | Quorum Sensing Inhibition at 24 h Anti-QS ± SEM (S. pneumoniae [14]) | CC50 at 24 h [15] | Quorum Sensing Inhibition at 24 h Anti-QS ± SEM (H. influenzae [16]) | also measured
1 | CC1=C2C=C3CCC4C(C)(C)CCC[C@]4(C)C3CC2OC1=O (single isomer, unassigned; (-)) [Compound 3, (−)-Jolkinolide E] | 29.4 ± 0.48 µM | 23.96 ± 0.21 µM | 1.71 µM (≈ 0.514 µg/mL) | 0.94 ± 0.03 µM | 78.13% | 0.31 ± 0.03 µM | 4.89 µM (≈ 1.47 µg/mL) | 4.88 ± 0.09 µM | 1.62 ± 0.06 µM | 0.53 µM (≈ 0.159 µg/mL) | 1.09 µM (≈ 0.327 µg/mL) | 18 ± 0.37 µM | 3.01 ± 0.07 µM | 71.2 µM | 0.64 ± 0.01 µM | cytotoxicity (Huh7 cells): 39.53 µM; MIC [11, 22]: 0.53 to 1.09 µM; CC50 at 24 h [12]: > 70 µM; cytotoxicity (Hep3B cells): 37.23 µM
2 | Cc1c2oc3c(C)ccc(C(=O)N[C@@H]4C(=O)N[C@H](C(C)C)C(=O)N5CCC[C@H]5C(=O)N(C)CC(=O)N(C)[C@@H](C(C)C)C(=O)O[C@@H]4C)c3nc-2c(C(=O)N[C@@H]2C(=O)N[C@H](C(C)C)C(=O)N3CCC[C@H]3C(=O)N(C)CC(=O)N(C)[C@@H](C(C)C)C(=O)O[C@@H]2C)c(N)c1=O [ACTD, Actinomycin D, reference compound] (I: T[dV]P[Sar][NMeV] / II: T[dV]P[Sar][NMeV]; ester I:1-I:C, II:1-II:C; linker I:N-II:N via Actinocin(9to1)) | – | – | – | – | – | – | – | – | – | – | – | – | – | – | – | CC50 at 24 h [17]: 0.014 µg/mL and 10 nM; CC50 at 24 h [18]: 0.017 µg/mL and 10 nM; CC50 at 24 h ([12]; CC50, cell line not singled out, for the compounds): 0.008 µM; CC50 at 24 h ([12]; CC50 of positive control, value given in the method for the extracts, cell line not stated): 0.01 µg/mL; CC50 at 24 h ([15]; Viability (CC50), WST-1, 24 h, THP-1): 0.019 µg/mL and 10 nM
3 | CC1=C(O)C(=O)C=C2C1=CC=C1[C@@]2(C)CC[C@@]2(C)[C@@H]3C[C@](C)(C(=O)O)CC[C@]3(C)CC[C@]12C [CEL, Celastrol, reference compound] | – | – | – | – | – | – | – | – | – | – | – | – | – | – | – | IC50 (NF-κB [1]; THP-1, 24 h): 7.63 µM and 3.34 µg/mL; IC50 (NF-κB [2]; MRC5, 24 h): 7.41 µM and 3.27 µg/mL; IC50 (NF-κB [13]): 7.15 µM and 3.24 µg/mL
4 | N=C(NCCCCCCNC(=N)NC(=N)Nc1ccc(Cl)cc1)NC(=N)Nc1ccc(Cl)cc1.O=C(O)[C@H](O)[C@@H](O)[C@H](O)[C@H](O)CO.O=C(O)[C@H](O)[C@@H](O)[C@H](O)[C@H](O)CO [CHG, chlorhexidine digluconate] | – | – | – | – | – | – | – | – | – | – | – | – | – | – | – | BIC of reference control [19, 23]: 2.23 µM; BIC of reference control [19, 24]: 2000 µg/mL
5 | O=C(O)c1cn(C2CC2)c2cc(N3CCNCC3)c(F)cc2c1=O [CIP, Ciprofloxacin hydrochloride, reference compound] | – | – | – | 1.51 ± 0.01 µM | 71.68% | – | – | – | 2.13 ± 0.01 µM | – | – | – | – | – | – | violacein inhibitory concentration (CIV) (C. violaceum [4]; reference standard): 1.51 µM
6 | CC(C)(O)C1=CC2=CCC3[C@](C)(CCC[C@@]3(C)C(=O)O)C2CC1=O (some centres unmarked) [Compound 1, 15-Hydroxy-12-oxo-abietic acid] | 43.4 ± 0.73 µM | 39.01 ± 0.22 µM | 20.2 µM (≈ 6.72 µg/mL) | 4.83 ± 0.05 µM | 20.45% | 2.44 ± 0.09 µM | 28.3 µM (≈ 9.42 µg/mL) | 12.24 ± 0.08 µM | 11.31 ± 0.07 µM | 4.14 µM (≈ 1.38 µg/mL) | 7.88 µM (≈ 2.62 µg/mL) | 27.9 ± 0.89 µM | 9.89 ± 0.04 µM | 88.4 µM | 4.64 ± 0.09 µM | –
7 | CC(C)C1=CC2=CC[C@@H]3[C@](C)(CCC[C@@]3(C)C(=O)O)[C@H]2C[C@@H]1O [Compound 2, 12α-Hydroxyabietic acid] | 32.6 ± 0.69 µM | 26.9 ± 0.61 µM | 17.2 µM (≈ 5.49 µg/mL) | 3.55 ± 0.06 µM | 48.88% | 1.95 ± 0.07 µM | 23.5 µM (≈ 7.47 µg/mL) | 11.81 ± 0.07 µM | 7.54 ± 0.05 µM | 3.31 µM (≈ 1.05 µg/mL) | 5.42 µM (≈ 1.73 µg/mL) | 21.9 ± 0.23 µM | 8.14 ± 0.05 µM | 84.3 µM | 3.19 ± 0.04 µM | –
8 | CC(C)(O)c1ccc2c(c1)CC[C@H]1[C@](C)(C(=O)O)CCC[C@]21C [Compound 4, 15-Hydroxydehydroabietic acid] | 23.4 ± 0.71 µM | 17.4 ± 0.82 µM | 9.83 µM (≈ 3.11 µg/mL) | 1.16 ± 0.06 µM | 71.60% | 1.21 ± 0.04 µM | 15.4 µM (≈ 4.88 µg/mL) | 10.08 ± 0.08 µM | 5.81 ± 0.02 µM | 2.06 µM (≈ 0.652 µg/mL) | 4.06 µM (≈ 1.28 µg/mL) | 10.8 ± 0.69 µM | 7.78 ± 0.01 µM | 78.9 µM | 2.39 ± 0.03 µM | IC50 (RAW 264.7 cells): 50.9 µM; MIC [11, 22]: 2.06 to 4.06 µM
9 | O=C1C=C(Br)/C(=C/Br)O1 [Furanone C-30, (Z)-4-Bromo-5-(bromomethylene)-2(5H)-furanone, reference compound] | – | – | – | – | – | 11.59 ± 0.03 μM and 3.03 ± 0.08 μg/mL | – | 12.67 ± 0.02 μM and 3.77 ± 0.04 μg/mL | – | – | – | – | 12.03 ± 0.08 μM and 3.44 ± 0.06 μg/mL | – | 11.81 ± 0.05 μM and 3.21 ± 0.02 μg/mL | Anti-QS value of positive control [20, 23]: 11.81 µM; Anti-QS value of positive control [20, 24]: 3 µg/mL
10 | CC1COc2c(N3CCN(C)CC3)c(F)cc3c(=O)c(C(=O)O)cn1c23 (centres unmarked) [OFX, Ofloxacin, reference compound] | – | – | 11.3 µg/mL and 26.8 µM | – | – | – | 12.3 µg/mL and 28.4 µM | – | – | 9.03 µg/mL and 25.1 µM | 10 µg/mL and 24.1 µM | – | – | – | – | MIC ([11]; read-out: MIC of positive control, for the compounds, strain not stated or range over the four strains): 27.7 µM; MIC ([11]; read-out: MIC of positive control, value given in the method for the extracts, strain not stated): 10 µg/mL
